The target in assay [1] is T1, PfuTIM (Pyrococcus furiosus, UniProt P62002).
T1 construct: gene tpiA; full-length, 6xHis tag from pQE30 (BamHI/HindIII), tag kept; E. coli M15[pREP4]; IMAC and gel filtration; monomer ~25 kDa; octamer in Tris, hexamer in phosphate
Kind of assay: inhibition of cellobioside-resorufin hydrolysis, absorbance at […] nm. The note with it: enzyme 2 μM; cellobioside-resorufin 100 μM; norharman 25 μM; endoglucanase activity; headed as competitive. Type of assay: biochemical.

In assay [2] the target is T1, PfuTIM. Kind of assay: intrinsic tryptophan fluorescence quenching, hyperbolic fit. It is filed as binding.
Assay [3] deals with T1, PfuTIM. Kind of assay: resorufin release, absorbance at […] nm. Type of assay: biochemical. The note with it: pH 6.0, 35 °C; phosphate-purified enzyme 2 μM; substrate 2.5-250 μM; promiscuous endoglucanase activity, second site.
The target of assay [4] is T2, PfuTIM (Pyrococcus furiosus, UniProt P62002, E144G).
T2 construct: gene tpiA; full-length, 6xHis tag from pQE30 (BamHI/HindIII), tag kept; E. coli M15[pREP4]; IMAC and gel filtration; monomer ~25 kDa; octamer in Tris, hexamer in phosphate
The assay can be described thus: resorufin release, absorbance at […] nm. The note with it: 37 °C, overnight incubation. It is filed as biochemical.

T1 sequence (P62002 whole entry): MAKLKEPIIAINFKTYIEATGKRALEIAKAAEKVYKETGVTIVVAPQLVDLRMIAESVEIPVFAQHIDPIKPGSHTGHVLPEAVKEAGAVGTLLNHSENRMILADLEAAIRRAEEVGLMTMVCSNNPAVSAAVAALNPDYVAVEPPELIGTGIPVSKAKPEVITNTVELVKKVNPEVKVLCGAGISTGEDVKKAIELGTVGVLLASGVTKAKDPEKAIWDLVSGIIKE
T2 sequence (P62002 whole entry E144G): as the sequence (P62002 whole entry) above, with E144G counted along it

One may read the Kd as the constant that tells how readily two partners part at equilibrium. Read a high Kd as lower affinity. Turning to `c1ccc2c(c1)[nH]c1cnccc12` [norharman], the “complete inhibition at 25 μM” value at PfuTIM [1] is recorded as “With norharman, complete inhibition of endoglucanase/cellulase activity is seen”. On PfuTIM [2], the Kd is ~83 µM.
Consider `O=c1ccc2nc3ccc(O[C@@H]4O[C@H](CO)[C@@H](O[C@@H]5O[C@H](CO)[C@@H](O)[C@H](O)[C@H]5O)[C@H](O)[C@H]4O)cc3oc-2c1` [cellobioside–resorufin], for which the Km on PfuTIM [3] is reported as ~ 53.62 ± 4.05 μM. Also, at PfuTIM [4], the “% of wild-type activity” value was “percentages of activity with respect to the wild‐type protein are plotted, for assays with cellobioside–resorufin”.

For the origin of these results see article PMC5537068, “Endoglucanase activity at a second site in Pyrococcus furiosus triosephosphate isomerase—Promiscuity or compensation for a metabolic handicap?” (FEBS Open Bio, 2017).
